Data reported in the supplement of paper PMC10307832.

Experiments:
Assay in all cases: relative viability (nuclei count vs DMSO), 5 days (fraction); higher = more cells survive
Quizartinib = compound: CC(C)(C)c1cc(NC(=O)Nc2ccc(-c3cn4c(n3)sc3cc(OCCN5CCOCC5)ccc34)cc2)no1 [Quizartinib]
In short: (§1)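 After an overnight hold at 37 °C, lung cancer cell lines in 1536-well plates were pinned with five library-drug doses (not always all listed), each √10 from the next, on vehicle-anchored plates. The cells stayed 5 days without fresh medium, then a one-step fix, permeabilisation and Hoechst stain preceded 4× imaging and MetaXpress nuclear counts. A plate passed only with control CV under 25% and at least one doubling. Viability is the median, over plates, of treated-well nuclei relative to vehicle-well nuclei.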

YM155 = compound: COCC[n+]1c2c(n(Cc3cnccn3)c1C)C(=O)c1ccccc1C2=O [YM155]
In short: as §1

Quizartinib + Navitoclax = compound: CC(C)(C)c1cc(NC(=O)Nc2ccc(-c3cn4c(n3)sc3cc(OCCN5CCOCC5)ccc34)cc2)no1 [Quizartinib] + CC1(C)CCC(c2ccc(Cl)cc2)=C(CN2CCN(c3ccc(C(=O)NS(=O)(=O)c4ccc(N[C@H](CCN5CCOCC5)CSc5ccccc5)c(S(=O)(=O)C(F)(F)F)c4)cc3)CC2)C1 [Navitoclax] (partner 0.5 µM)
In short: (§2)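 Lung cancer cell lines were seeded in 1536-well plates and dosed by pin tool the next day, with either a single drug or a fixed anchor-drug dose combined with five library-drug doses (not always all listed) spaced in √10 steps. Five days later, one step fixed the cells and stained their nuclei (final 0.05% Triton X-100, 1% formaldehyde, 1 ug/ml Hoechst), and nuclei were counted on 4× images. Relative viability is the nuclei count in treated wells divided by the count in vehicle wells, and each value is the median of duplicate plates.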

Quizartinib + Foretinib = compound: CC(C)(C)c1cc(NC(=O)Nc2ccc(-c3cn4c(n3)sc3cc(OCCN5CCOCC5)ccc34)cc2)no1 [Quizartinib] + COc1cc2c(Oc3ccc(NC(=O)C4(C(=O)Nc5ccc(F)cc5)CC4)cc3F)ccnc2cc1OCCCN1CCOCC1 [Foretinib] (partner 0.25 µM)
In short: as §2

HCC-44
relative viability (Quizartinib; 0.001 µM): 0.963
relative viability (Quizartinib; 0.003162 µM): 0.981
relative viability (Quizartinib; 0.01 µM): 0.888
relative viability (Quizartinib; 0.03162 µM): 1
relative viability (Quizartinib; 0.1 µM): 0.858
relative viability (YM155; 0.002 µM): 0.986
relative viability (YM155; 0.006325 µM): 1.03
relative viability (YM155; 0.02 µM): 0.988
relative viability (YM155; 0.06325 µM): 0.978
relative viability (Quizartinib + Navitoclax; first compound 0.001 µM): 0.891
relative viability (Quizartinib + Navitoclax; first compound 0.003162 µM): 0.952
relative viability (Quizartinib + Navitoclax; first compound 0.01 µM): 1.04
relative viability (Quizartinib + Navitoclax; first compound 0.03162 µM): 0.955
relative viability (Quizartinib + Navitoclax; first compound 0.1 µM): 0.817

LCLC-103H
relative viability (Quizartinib; 0.001 µM): 0.87
relative viability (Quizartinib; 0.003162 µM): 0.983
relative viability (Quizartinib; 0.01 µM): 0.911
relative viability (Quizartinib; 0.03162 µM): 0.994
relative viability (Quizartinib; 0.1 µM): 0.971
relative viability (YM155; 0.002 µM): 0.996
relative viability (YM155; 0.006325 µM): 0.941
relative viability (YM155; 0.02 µM): 0.932
relative viability (YM155; 0.06325 µM): 1.02
relative viability (Quizartinib + Foretinib; first compound 0.001 µM): 0.786
relative viability (Quizartinib + Foretinib; first compound 0.003162 µM): 0.7
relative viability (Quizartinib + Foretinib; first compound 0.01 µM): 0.8
relative viability (Quizartinib + Foretinib; first compound 0.03162 µM): 0.788
relative viability (Quizartinib + Foretinib; first compound 0.1 µM): 0.995

NCI-H358
relative viability (Quizartinib; 0.001 µM): 0.892
relative viability (Quizartinib; 0.003162 µM): 0.979
relative viability (Quizartinib; 0.01 µM): 0.841
relative viability (Quizartinib; 0.1 µM): 0.873
relative viability (YM155; 0.002 µM): 0.831
relative viability (YM155; 0.006325 µM): 0.954
relative viability (YM155; 0.02 µM): 1.07
relative viability (YM155; 0.06325 µM): 0.34
relative viability (Quizartinib + Foretinib; first compound 0.001 µM): 0.613
relative viability (Quizartinib + Foretinib; first compound 0.003162 µM): 0.796
relative viability (Quizartinib + Foretinib; first compound 0.01 µM): 0.634
relative viability (Quizartinib + Foretinib; first compound 0.03162 µM): 0.438
relative viability (Quizartinib + Foretinib; first compound 0.1 µM): 0.642

NCI-H522
relative viability (Quizartinib; 0.001 µM): 0.874
relative viability (Quizartinib; 0.003162 µM): 1.09
relative viability (Quizartinib; 0.01 µM): 1.04
relative viability (Quizartinib; 0.03162 µM): 0.901
relative viability (Quizartinib; 0.1 µM): 0.97
relative viability (YM155; 0.002 µM): 0.913
relative viability (YM155; 0.006325 µM): 0.923
relative viability (YM155; 0.02 µM): 1.08
relative viability (YM155; 0.06325 µM): 0.997

NCI-H650
relative viability (Quizartinib; 0.001 µM): 0.849
relative viability (Quizartinib; 0.003162 µM): 0.863
relative viability (Quizartinib; 0.01 µM): 0.851
relative viability (Quizartinib; 0.03162 µM): 0.833
relative viability (Quizartinib; 0.1 µM): 0.967
relative viability (YM155; 0.002 µM): 0.953
relative viability (YM155; 0.006325 µM): 0.88
relative viability (YM155; 0.02 µM): 1.01
relative viability (YM155; 0.06325 µM): 0.909
relative viability (Quizartinib + Foretinib; first compound 0.001 µM): 1.02
relative viability (Quizartinib + Foretinib; first compound 0.003162 µM): 1.04
relative viability (Quizartinib + Foretinib; first compound 0.01 µM): 1.16
relative viability (Quizartinib + Foretinib; first compound 0.03162 µM): 0.978
relative viability (Quizartinib + Foretinib; first compound 0.1 µM): 1.18

NCI-H661
relative viability (Quizartinib; 0.001 µM): 0.883
relative viability (Quizartinib; 0.003162 µM): 0.988
relative viability (Quizartinib; 0.01 µM): 0.991
relative viability (Quizartinib; 0.03162 µM): 1.01
relative viability (Quizartinib; 0.1 µM): 0.948
relative viability (YM155; 0.002 µM): 0.982
relative viability (YM155; 0.006325 µM): 0.957
relative viability (YM155; 0.02 µM): 0.991
relative viability (YM155; 0.06325 µM): 0.909
relative viability (Quizartinib + Foretinib; first compound 0.001 µM): 0.963
relative viability (Quizartinib + Foretinib; first compound 0.003162 µM): 0.945
relative viability (Quizartinib + Foretinib; first compound 0.01 µM): 1.13
relative viability (Quizartinib + Foretinib; first compound 0.03162 µM): 0.994
relative viability (Quizartinib + Foretinib; first compound 0.1 µM): 1.01

NCI-H1563
relative viability (Quizartinib; 0.001 µM): 1
relative viability (Quizartinib; 0.003162 µM): 0.889
relative viability (Quizartinib; 0.01 µM): 0.989
relative viability (Quizartinib; 0.03162 µM): 0.646
relative viability (Quizartinib; 0.1 µM): 0.949
relative viability (YM155; 0.002 µM): 0.971
relative viability (YM155; 0.006325 µM): 0.966
relative viability (YM155; 0.02 µM): 1.07
relative viability (YM155; 0.06325 µM): 0.983
relative viability (Quizartinib + Foretinib; first compound 0.001 µM): 0.975
relative viability (Quizartinib + Foretinib; first compound 0.003162 µM): 0.898
relative viability (Quizartinib + Foretinib; first compound 0.01 µM): 0.884
relative viability (Quizartinib + Foretinib; first compound 0.03162 µM): 0.631
relative viability (Quizartinib + Foretinib; first compound 0.1 µM): 0.881

NCI-H1623
relative viability (Quizartinib; 0.001 µM): 0.845
relative viability (Quizartinib; 0.003162 µM): 1.12
relative viability (Quizartinib; 0.01 µM): 0.905
relative viability (Quizartinib; 0.03162 µM): 0.977
relative viability (Quizartinib; 0.1 µM): 1.09
relative viability (YM155; 0.002 µM): 0.934
relative viability (YM155; 0.006325 µM): 1.29
relative viability (YM155; 0.02 µM): 1.02
relative viability (YM155; 0.06325 µM): 1.02
relative viability (Quizartinib + Foretinib; first compound 0.001 µM): 0.694
relative viability (Quizartinib + Foretinib; first compound 0.003162 µM): 0.884
relative viability (Quizartinib + Foretinib; first compound 0.01 µM): 0.831
relative viability (Quizartinib + Foretinib; first compound 0.03162 µM): 0.844
relative viability (Quizartinib + Foretinib; first compound 0.1 µM): 0.859

NCI-H1792
relative viability (Quizartinib; 0.001 µM): 0.712
relative viability (Quizartinib; 0.003162 µM): 0.987
relative viability (Quizartinib; 0.01 µM): 0.811
relative viability (Quizartinib; 0.03162 µM): 0.853
relative viability (Quizartinib; 0.1 µM): 0.924
relative viability (YM155; 0.002 µM): 0.754
relative viability (YM155; 0.006325 µM): 0.884
relative viability (YM155; 0.02 µM): 0.983
relative viability (YM155; 0.06325 µM): 0.957
relative viability (Quizartinib + Navitoclax; first compound 0.001 µM): 0.584
relative viability (Quizartinib + Navitoclax; first compound 0.003162 µM): 0.646
relative viability (Quizartinib + Navitoclax; first compound 0.01 µM): 0.697
relative viability (Quizartinib + Navitoclax; first compound 0.03162 µM): 0.617
relative viability (Quizartinib + Navitoclax; first compound 0.1 µM): 0.587

NCI-H2342
relative viability (Quizartinib; 0.001 µM): 0.953
relative viability (Quizartinib; 0.003162 µM): 0.992
relative viability (Quizartinib; 0.01 µM): 1.02
relative viability (Quizartinib; 0.03162 µM): 0.88
relative viability (Quizartinib; 0.1 µM): 1.06
relative viability (YM155; 0.002 µM): 0.947
relative viability (YM155; 0.006325 µM): 0.997
relative viability (YM155; 0.02 µM): 0.996
relative viability (YM155; 0.06325 µM): 0.949
relative viability (Quizartinib + Foretinib; first compound 0.001 µM): 0.965
relative viability (Quizartinib + Foretinib; first compound 0.003162 µM): 0.938
relative viability (Quizartinib + Foretinib; first compound 0.01 µM): 1.11
relative viability (Quizartinib + Foretinib; first compound 0.03162 µM): 1
relative viability (Quizartinib + Foretinib; first compound 0.1 µM): 0.988

SW 900
relative viability (Quizartinib; 0.001 µM): 0.823
relative viability (Quizartinib; 0.003162 µM): 1.12
relative viability (Quizartinib; 0.01 µM): 0.745
relative viability (Quizartinib; 0.03162 µM): 0.803
relative viability (Quizartinib; 0.1 µM): 0.994
relative viability (YM155; 0.002 µM): 0.71
relative viability (YM155; 0.006325 µM): 0.828
relative viability (YM155; 0.02 µM): 0.869
relative viability (YM155; 0.06325 µM): 0.729
relative viability (Quizartinib + Foretinib; first compound 0.001 µM): 0.802
relative viability (Quizartinib + Foretinib; first compound 0.003162 µM): 0.85
relative viability (Quizartinib + Foretinib; first compound 0.03162 µM): 0.882
relative viability (Quizartinib + Foretinib; first compound 0.1 µM): 0.836
